Source: patent US11591569B2, “Methods for epicardial differentiation of human pluripotent stem cells” (Wisconsin Alumni Research Foundation, priority 2015, dated 2023)

Key:
Assay type in all cases: cell-based, human
[1] = tested on: hPSC-derived epicardial cells; test: Long-term expansion of hPSC-derived epicardial cells
Procedure: Long-Term Maintenance of hPSC-Derived Epicardial Cells: To expand the epicardial cells, confluent cells on day 3 or 4 of differentiation were split 1:3 at a density of 0.04 to 0.08 million cells/cm^2 using Versene (Life Technologies) or Accutase and routinely passaged onto gelatin-coated plates in LaSR basal medium or RPMI/Vc/Ins medium and 0.5 μM A83-01 (Stemgent) or 2 μM SB431542 (Stemgent) with medium changed daily until the cells reached confluence. Overnight treatment of 5 μM Y27632 and 1% human recombinant albumin (Sigma-Aldrich) on single cells during passage was used to improve cell attachment and survival, but they were not required once cells attached.
Flow Cytometry Analysis: Cells were dissociated into single cells with Accutase for 10 minutes and then fixed with 1% paraformaldehyde for 20 minutes at room temperature and stained with primary and secondary antibodies (Table 1) in PBS plus 0.1% Triton X-100 and 0.5% BSA. Data were collected on a FACSCaliber flow cytometer (Beckton Dickinson) and analyzed using FlowJo. FACS gating was based on the corresponding isotype antibody control.

[2] = tested on: hPSC-derived cardiac progenitors; test: Epicardial (WT1+) differentiation of hPSC-derived cardiac progenitors, flow cytometry at day 12; settings: for cTnT+WT1+ cells: day 6 progenitors treated day 7 to day 9, day 12 flow cytometry; for WT1+ cell differentiation compared with 3 μM CHIR99021: 0.3 μM, day 7 to day 9, GiWiGi protocol, flow cytometry at day 12
Procedure: Epicardial Cell Generation Via Activation of Canonical Wnt Signaling: At day 6, cardiac progenitor cells were singularized with Accutase at 37° C. for 5 minutes and then seeded onto a gelatin-coated cell culture dish at 20,000-80,000 cells/cm^2 in LaSR basal medium (advanced DMEM/F12 with 100 μg/mL ascorbic acid) or RPMI/Vc/Ins medium (100 μg/mL ascorbic acid and 1 μg/mL human recombinant or bovine insulin (Sigma)) with 5 μM ROCK inhibitor Y-27632 for 24 hours. […] Data were collected on a FACSCaliber flow cytometer (Beckton Dickinson) and analyzed using FlowJo. FACS gating was based on the corresponding isotype antibody control. Pro-epicardium arises from ISL1+NKX2.5+ second heart field progenitors in vivo^1,41.

hPSCs = test: Cardiac progenitor induction from hPSCs, gene expression by quantitative RT-PCR; settings: 6 μM CHIR99021 at day 0 in RPMI medium, H13 hESCs
Procedure: Cardiac Progenitor Induction Via Modulation of Canonical Wnt Signaling: When hPSCs maintained on a SyntheMax-coated surface achieved confluence, cells were singularized with Accutase (Innovative Cell Technologies) at 37° C. for 5 minutes and then seeded onto a SyntheMax-coated cell culture dish at 250,000 cells/cm^2 in mTeSR1 or E8 supplemented with 5 μM ROCK inhibitor Y-27632 (Selleckchem) (day −3) for 24 hours. Cells were then cultured in mTeSR1 or E8, changed daily. At day 0, cells were treated with 6 μM CHIR99021 (Selleckchem) for 24 hours in RPMI medium, followed by a change with RPMI medium at day 1. 2.5-5 μM IWP2 (Tocris) was added at day 3 and removed during the medium change at day 5.
(§1) RT-PCR and Quantitative RT-PCR: Total RNA was prepared with the RNeasy mini kit (QIAGEN) and treated with DNase (QIAGEN). 1 μg RNA was reverse transcribed into cDNA via Oligo (dT) with Superscript III Reverse Transcriptase (Invitrogen). Real-time quantitative PCR was done in triplicate with iQSYBR Green SuperMix (Bio-Rad). GAPDH was used as an endogenous housekeeping control.

[3] = tested on: hPSC-derived epicardial cells; test: EMT induction of hPSC-derived epicardial cells; settings: 10 ng/mL bFGF, 5 ng/mL TGFβ1; for Cell morphology after treatment: H13 hESC-derived epicardial cells, day 18; for Expression of WT1 and ZO1: immunostaining; for EMT (CDH1 decreased, CDH2 and SNAIL2 increased versus untreated controls): qPCR and E-cadherin immunostaining
Procedure: Single Cell Passage and EMT Induction: Confluent WT1+ cells were dissociated into single cells with Accutase at 37° C. for 5 minutes and then seeded onto a gelatin-coated cell culture dish at 10,000 cells/cm^2 in LaSR basal medium supplemented with 5 μM ROCK inhibitor Y-27632 for 24 hr. After 24 hours, medium was changed to LaSR basal medium and cells were treated with TGFβ1 or bFGF (R&D Systems) as indicated. Medium was changed every 3 days until analysis.
Immunostaining Analysis: Cells were fixed with 4% paraformaldehyde for 15 minutes at room temperature and then stained with primary and secondary antibodies (Table 1) in PBS plus 0.4% Triton X-100 and 5% non-fat dry milk (Bio-Rad). Nuclei were stained with Gold Anti-fade Reagent with DAPI (Invitrogen). An epifluorescence microscope (Leica DM IRB) with a QImaging® Retiga 4000R camera was used for imaging analysis.
as §1

[4] = day 6 ISL1+NKX2.5+ progenitors treated 48 hours (day 7 to day 9), H13 hESC-derived day 12 cultures, concentrations per Table 3

For `Cc1cccc(-c2nn(C(=S)Nc3ccccc3)cc2-c2ccnc3ccccc23)n1` [A83-01], the “Expandability of epicardial cells from additional hPSC lines” value ([1]; 19-9-11 iPSC-derived epicardial cells, 0.5 μM A83-01) was “expandable” and the “Expansion with retention of epithelial morphology and WT1 expression” value ([1]; H13 hESC-derived day 18 epicardial cells, treated 3 days, 0.5 μM) was “enabled expansion of hPSC-derived epicardial cells that retained polarized epithelial morphology and WT1 expression”.

`CC1=C(/C=C/C(C)=C/C=C/C(C)=C/C(=O)O)C(C)(C)CCC1` [retinoic acid] was tested, and the “WT1+ cells” value [2, 4] was “about 10%” and the “cTnT+WT1+ cells” value [2] was 2%.

With `Cc1c[nH]c(-c2cnc(NCCNc3ccc(C#N)cn3)nc2-c2ccc(Cl)cc2Cl)n1` [CHIR99021] the “WT1+ cells” value ([2]; 3 μM CHIR, initial density 0.06 million cells per cm^2, LaSR basal medium, day 12) was “more than 95%”, the “WT1+ cells” value [2, 4] was “more than 85%” and the “Gene expression changes in the first 24 hr after addition” value (hPSCs) was “down-regulation of the pluripotency markers OCT4 and NANOG, and induction of the primitive streak like gene T”.

With “bFGF: FGF pathway protein modulator (R&D Systems)” the “Cell morphology after treatment” value [3] was “fibroid spindle”, the “Expression of WT1 and ZO1” value [3] was “significantly decreased” and the “EMT (CDH1 decreased, CDH2 and SNAIL2 increased versus untreated controls)” value [3] was “induced EMT”.

With CHIR98014 the “WT1+ cell differentiation compared with 3 μM CHIR99021” value [2] was “induced WT1+ cell differentiation to a similar extent as 3 μM CHIR99021”.

For BIO-acetoxime, the “WT1+ cell differentiation compared with 3 μM CHIR99021” value [2] was “induced WT1+ cell differentiation to a similar extent as 3 μM CHIR99021”.

In the case of “TGFβ: TGFβ pathway protein modulator (R&D Systems)”, the “Cell morphology after treatment” value [3] is reported as “fusiform-shaped appearance”, the “Expression of WT1 and ZO1” value [3] is reported as “significantly decreased” and the “EMT (CDH1 decreased, CDH2 and SNAIL2 increased versus untreated controls)” value [3] is reported as “induced EMT”.

With `c1cc(-c2cnn3cc(-c4ccc(OCCN5CCCCC5)cc4)cnc23)ccn1` [dorsomorphin] the “WT1+ cells” value [2, 4] was “about 10%” and the “cTnT+WT1+ cells” value [2] was 2%.

B1: Bone Morphogenetic Protein 4 (protein, UniProt P12644 293-408, looked up)
Bone morphogenetic protein 4: SPKHHSQRARKKNKNCRRHSLYVDFSDVGWNDWIVAPPGYQAFYCHGDCPFPLADHLNSTNHAIVQTLVNSVNSSIPKACCVPTELSAISMLYLDEYDKVVLKNYQEMVVEGCGCR
notes: TGFβ superfamily growth factor
With B1 the “Cell population obtained in the presence of CHIR” value ([2]; co-treatment with CHIR (2 μM CHIR99021, FIG. 10), day 7 to day 9, day 12 flow cytometry of cTnT and WT1) was “yielded an unknown population at the expense of WT1+ cells”, the “WT1+ cells” value [2, 4] was “about 10%” and the “cTnT+WT1+ cells” value [2] was 2%.
